Reference: paper PMC9958325 (Nature Communications, 2023)
Values joined by “and” are separate entries in the source; they are usually repeats but may differ in a detail not shown here. Identical values can stand only once. Like-named read-outs stand apart in the source and are kept apart here.

Legend:
[1] = in vitro; details: human, HeLa-ACE2-TMPRSS2 cells
[2] = in vitro; details: African green monkey, VeroE6 cells
[3] = system: VeroE6 cells; details: African green monkey, 6 h
[4] = in vivo; details: male, PXB (human liver-chimeric), mouse, po, 10 mg/kg
[5] = system: HeLa-ACE2-TMPRSS2 cells; experiment: Cytotoxicity (WST-8) in noninfected HeLa-ACE2-TMPRSS2 cells; details: read-out: CC50, HeLa-ACE2-TMPRSS2
[6] = mouse, in vivo
[7] = target: SARS-CoV-2 M^pro/3CL^pro (Severe acute respiratory syndrome coronavirus 2, UniProt P0DTD1); format: biochemical; design: IC95, individual assays / IC95, Average: unit: µM
[8] = Pharmacokinetic study in ICR mice
[9] = system: VeroE6 cells; experiment: Cytotoxicity (WST-8) in noninfected VeroE6 cells
[10] = system: A549-ACE2-TMPRSS2 cells; details: read-out: CC50, A549-ACE2-TMPRSS2; noninfected cells
[11] = target: T1, human cathepsin L (Homo sapiens, UniProt P07711); experiment: Human cathepsin L inhibitor screening assay; format: biochemical; details: for % inhibition against human Cathepsin: triplicate; for IC50: 30 minute incubation, mean ± 1 S.D., n=3
T1 construct: purchased abcam ab197012
T1 sequence (P07711 114-333): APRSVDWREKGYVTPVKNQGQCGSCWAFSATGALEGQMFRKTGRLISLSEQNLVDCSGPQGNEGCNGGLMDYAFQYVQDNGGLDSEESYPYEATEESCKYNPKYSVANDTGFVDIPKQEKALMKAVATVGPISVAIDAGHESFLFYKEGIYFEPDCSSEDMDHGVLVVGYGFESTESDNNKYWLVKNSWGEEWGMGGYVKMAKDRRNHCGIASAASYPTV

[12] = system: SARS-CoV-2NC928-2N^Omicron_BA.1; design: species or system hACE2 knock-in mice; details: mouse, in vivo; for Virus titer in lung: ip
[13] = system: HepG2 cells
[14] = target: SARS-CoV-2 M^pro (Severe acute respiratory syndrome coronavirus 2, UniProt P0DTD1); details: PDB 8DOX (TKB245), 8DPR (TKB248)
[15] = system: SARS-CoV-2UW-5250^Delta; design: species or system hACE2 knock-in mice; details: mouse, in vivo, ip, 100 mg/kg
[16] = system: SARS-CoV-2NCD1288^Omicron_BA.2; design: species or system hACE2 knock-in mice; details: mouse, in vivo, ip, 120 mg/kg
[17] = target: Glycine-added M^pro (Severe acute respiratory syndrome coronavirus 2, UniProt P0DTD1)
[18] = target: authentic SARS-CoV-2 M^pro (Severe acute respiratory syndrome coronavirus 2, UniProt P0DTD1)
[19] = source data, M^pro enzyme assay
[20] = read-out: CC50, VeroE6 + 2 µM CP100356, CP100356 2 µM

In the case of `CC(C)(C)[C@H](NC(=O)C(F)(F)F)C(=O)N1C[C@H]2[C@@H]([C@H]1C(=O)N[C@H](C#N)C[C@@H]1CCNC1=O)C2(C)C` [Nirmatrelvir, reference compound], the CC50 at 3 days [1] is reported as > 100 µM, the CC50 at 3 days [2] is reported as > 100 µM and the “Intracellular amount, avg” value ([3]; 10 µM) is reported as 0 pmol(total). For the same compound, the “Intracellular amount, individual” value ([3]; 10 µM) was 0 pmol(total), the “intracellular compound, /1x10^6” value ([3]; 10 µM) was 0 /1x10^6 and the “intracellular compound, pmol(total)” value ([3]; 10 µM) was 0 pmol. For the same compound, the “Intracellular amount, avg” value ([3]; 50 µM) was 0.03906 pmol(total), the “Intracellular amount, avg” value ([3]; 100 µM) was 0.1149 pmol(total) and the half-life [4] was 1.03 h.
In the case of `CC(C)(C)[C@H](NC(=O)C(F)(F)F)C(=O)N1C[C@H]2[C@@H]([C@H]1C(=O)N[C@@H](C[C@@H]1CCNC1=O)C(=O)c1nc3c(F)cccc3s1)C2(C)C` [TKB245], the CC50 [5] is reported as > 100 µM, the “Body weights and survival rates” value [6] is reported as “no significant changes were recorded” and the “SARS-CoV2 M^pro enzyme assay IC95” value ([7]; FRET, mean ± 1 S.D.) is reported as 0.14 ± 0.07 µM. The “IC95, Average” value [7, 19] was 0.1363, the “IC95, individual assays” value ([7]; source data, M^pro enzyme assay, listed as TKB0245) was 0.096 and 0.213 and 0.100 and the Plasma concentration ([8]; ICR mice, i.p. 10 mg/kg, 2:00:00, individual mice, 10 mg/kg) was 528.9 ng/mL. For the same compound, the Plasma concentration ([8]; ICR, i.p., 120 min, individual animals (2 per time point), LC/MS/MS) was 528.86 ng/mL, the CC50 ([9]; read-out: CC50, VeroE6) was > 100 µM and the CC50 [9, 20] was > 100 µM. The CC50 [10] was > 100 µM, the “Effect on human cathepsin L (in words)” value [11] was “neither of human cysteine enzymes, cathepsin L and calpain, were significantly affected” and the “% inhibition against human Cathepsin” value ([11]; 0.00106 µM) was 0%. For the same compound, the “% inhibition against human Cathepsin” value ([11]; 0.0053 µM) was 0%, the “% inhibition against human Cathepsin” value ([11]; 0.0266 µM) was 0% and 0.8979% and the “% inhibition against human Cathepsin” value ([11]; 0.6 µM) was 0% and 2.5149%. For the same compound, the “% inhibition against human Cathepsin” value ([11]; 3.3 µM) was 9.142% and 0% and 2.217%, the “% inhibition against human Cathepsin” value ([11]; 16.6 µM) was 21.1326% and 17.6611% and 11.0896% and the IC50 [11] was > 16 µM. The “Virus titer in lung” value ([12]; 100 mg/kg) was 2.95 Log10 PFU/gr and 3.55 Log10 PFU/gr, the CC50 [13] was > 200 µM and the “Binding mode in co-crystal structure” value [14] was “covalent bond formation between Cys145 and 4-fluorobenzothioazoly ketone”. The “Virus titer in lung” value [15] was 6.24 Log10 PFU/gr and 6.89 Log10 PFU/gr.
With `CC(C)(C)[C@H](NC(=O)C(F)(F)F)C(=O)N1C[C@H]2[C@@H]([C@H]1C(=S)N[C@@H](C[C@@H]1CCNC1=O)C(=O)c1nc3c(F)cccc3s1)C2(C)C` [TKB248] the CC50 [5] was > 100 µM, the “Virus titer in lung” value [16] was 5.57 Log10 PFU/gr and 4.93 Log10 PFU/gr and the “Body weights and survival rates” value ([6]; ip, 120 mg/kg) was “no significant changes were recorded”. For the same compound, the “SARS-CoV2 M^pro enzyme assay IC95” value ([7]; FRET, mean ± 1 S.D.) was 6.00 ± 5.29 µM, the IC50 ([7]; FRET, mean ± 1 S.D., read-out: SARS-CoV2 M^pro enzyme assay IC50) was 0.074 ± 0.034 µM and the “IC95, Average” value [7, 19] was 6.000. The “IC95, individual assays” value ([7]; source data, M^pro enzyme assay, listed as TKB0248) was 12.00 and 2.000 and 4.000, the IC50 ([7]; source data, M^pro enzyme assay, listed as TKB0248, read-out: IC50, individual assays) was 0.0472 µM and 0.0622 µM and 0.113 µM and the IC50 ([7]; source data, M^pro enzyme assay, read-out: IC50, Average) was 0.0741 µM. For the same compound, the CC50 ([9]; read-out: CC50, VeroE6) was > 100 µM, the CC50 [9, 20] was > 100 µM and the CC50 [10] was > 100 µM. For the same compound, the “Effect on human cathepsin L (in words)” value [11] was “neither of human cysteine enzymes, cathepsin L and calpain, were significantly affected”, the “% inhibition against human Cathepsin” value ([11]; 0.00106 µM) was 0% and the “% inhibition against human Cathepsin” value ([11]; 0.0053 µM) was 0%. For the same compound, the “% inhibition against human Cathepsin” value ([11]; 0.0266 µM) was 0%, the “% inhibition against human Cathepsin” value ([11]; 0.6 µM) was 0.7754% and 0% and the “% inhibition against human Cathepsin” value ([11]; 3.3 µM) was 3.874% and 0.1997% and 5.01%. The “% inhibition against human Cathepsin” value ([11]; 16.6 µM) was 10.3453% and 15.2677% and 19.1834%, the IC50 [11] was > 16 µM and the “lung virus titer, ave of log pfu/g” value [12] was 4.602 log pfu/g and 4.836 log pfu/g. The “Virus titer in lung” value ([12]; 120 mg/kg) was 4.60 Log10 PFU/gr and 4.84 Log10 PFU/gr, the “Peak ratio, Monomer” value [17] was 36.5% and the “Peak ratio, Monomer-1X compound” value [17] was 21.2%. The “Peak ratio, Dimer-1X compound” value [18] was 42.6% and 25.2%, the “Peak ratio, M^pro Monomer” value [18] was 8.6% and 7.7% and the CC50 [13] was > 200 µM. For the same compound, the “Binding mode in co-crystal structure” value [14] was “covalent bond formation between Cys145 and 4-fluorobenzothioazoly ketone”.
